Among the data in ChEMBL document CHEMBL4507291 (2021) are residual activity and inhibition values, retold here.

In test [1] the target is Calcium/calmodulin-dependent protein kinase type 1 (Homo sapiens) (UniProt Q14012).
The target of test [2] is Casein kinase II subunit alpha' (Homo sapiens) (UniProt P19784).
The target in test [3] is Serine/threonine-protein kinase 17B (Homo sapiens) (UniProt O94768).
The target of test [4] is Dual specificity tyrosine-phosphorylation-regulated kinase 1B (Homo sapiens) (UniProt Q9Y463).
In test [5] the target is Ephrin type-B receptor 6 (Homo sapiens) (UniProt O15197).
The target of test [6] is Vascular endothelial growth factor receptor 3 (Homo sapiens) (UniProt P35916).
Chain of Vascular endothelial growth factor receptor 3 (Homo sapiens) (P35916 whole entry): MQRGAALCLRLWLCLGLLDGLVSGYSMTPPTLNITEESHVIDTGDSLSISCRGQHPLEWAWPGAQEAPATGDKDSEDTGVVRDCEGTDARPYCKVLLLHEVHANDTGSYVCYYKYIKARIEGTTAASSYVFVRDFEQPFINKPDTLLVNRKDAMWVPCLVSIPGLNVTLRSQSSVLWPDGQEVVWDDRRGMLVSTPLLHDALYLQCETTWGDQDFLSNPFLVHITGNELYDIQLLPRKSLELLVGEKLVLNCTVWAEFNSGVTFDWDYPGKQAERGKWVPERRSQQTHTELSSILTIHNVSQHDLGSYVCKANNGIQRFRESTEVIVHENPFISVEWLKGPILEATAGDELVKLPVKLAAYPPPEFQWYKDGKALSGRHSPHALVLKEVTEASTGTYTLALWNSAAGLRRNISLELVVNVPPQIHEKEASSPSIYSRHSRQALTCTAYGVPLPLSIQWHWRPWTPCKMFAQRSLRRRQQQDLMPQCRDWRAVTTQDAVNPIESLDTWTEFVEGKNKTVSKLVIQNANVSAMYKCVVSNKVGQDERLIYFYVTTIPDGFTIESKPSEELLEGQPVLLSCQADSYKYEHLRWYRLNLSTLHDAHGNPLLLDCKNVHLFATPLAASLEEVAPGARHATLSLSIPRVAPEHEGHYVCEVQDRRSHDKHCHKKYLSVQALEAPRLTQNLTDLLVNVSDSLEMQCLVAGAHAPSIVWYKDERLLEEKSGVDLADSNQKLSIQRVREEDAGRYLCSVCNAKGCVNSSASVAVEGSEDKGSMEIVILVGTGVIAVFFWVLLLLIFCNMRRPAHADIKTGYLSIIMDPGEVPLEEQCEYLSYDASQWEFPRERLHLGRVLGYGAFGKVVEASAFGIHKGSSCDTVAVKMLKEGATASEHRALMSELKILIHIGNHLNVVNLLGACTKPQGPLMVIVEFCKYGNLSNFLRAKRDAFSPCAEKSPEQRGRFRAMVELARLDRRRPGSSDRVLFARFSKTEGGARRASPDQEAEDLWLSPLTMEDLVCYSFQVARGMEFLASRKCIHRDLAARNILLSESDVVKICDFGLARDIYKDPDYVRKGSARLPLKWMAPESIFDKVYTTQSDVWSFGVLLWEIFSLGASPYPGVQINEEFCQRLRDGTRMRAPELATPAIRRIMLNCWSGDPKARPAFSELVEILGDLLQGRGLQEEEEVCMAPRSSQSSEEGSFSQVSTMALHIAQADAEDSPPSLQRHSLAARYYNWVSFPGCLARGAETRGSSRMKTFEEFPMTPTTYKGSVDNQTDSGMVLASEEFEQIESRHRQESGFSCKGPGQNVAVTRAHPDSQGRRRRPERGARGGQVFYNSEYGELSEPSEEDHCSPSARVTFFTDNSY
The target of test [7] is Insulin receptor-related protein (Homo sapiens) (UniProt P14616).
Chain of Insulin receptor-related protein (Homo sapiens) (P14616 27-742 limits assumed): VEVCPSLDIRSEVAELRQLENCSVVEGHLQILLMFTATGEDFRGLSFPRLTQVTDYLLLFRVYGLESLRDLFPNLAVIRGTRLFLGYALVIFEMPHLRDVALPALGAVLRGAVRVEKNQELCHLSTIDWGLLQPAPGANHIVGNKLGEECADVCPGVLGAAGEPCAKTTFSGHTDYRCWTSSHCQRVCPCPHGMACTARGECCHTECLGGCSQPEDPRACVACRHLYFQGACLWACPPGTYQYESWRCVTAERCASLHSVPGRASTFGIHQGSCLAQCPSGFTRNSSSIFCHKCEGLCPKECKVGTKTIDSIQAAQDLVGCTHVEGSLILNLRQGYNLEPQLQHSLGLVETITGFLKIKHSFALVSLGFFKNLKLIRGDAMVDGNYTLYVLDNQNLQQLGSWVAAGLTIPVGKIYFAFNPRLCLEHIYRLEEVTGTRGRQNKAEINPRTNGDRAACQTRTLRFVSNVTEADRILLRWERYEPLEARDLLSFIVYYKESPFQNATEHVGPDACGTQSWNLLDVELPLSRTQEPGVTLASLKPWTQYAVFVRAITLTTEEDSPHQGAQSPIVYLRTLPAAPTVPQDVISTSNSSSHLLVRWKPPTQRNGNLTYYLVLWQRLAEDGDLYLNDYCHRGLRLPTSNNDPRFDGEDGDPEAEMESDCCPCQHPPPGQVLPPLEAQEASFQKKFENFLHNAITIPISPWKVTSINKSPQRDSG
Chain of Insulin receptor-related protein (Homo sapiens) (P14616 747-1297 limits assumed): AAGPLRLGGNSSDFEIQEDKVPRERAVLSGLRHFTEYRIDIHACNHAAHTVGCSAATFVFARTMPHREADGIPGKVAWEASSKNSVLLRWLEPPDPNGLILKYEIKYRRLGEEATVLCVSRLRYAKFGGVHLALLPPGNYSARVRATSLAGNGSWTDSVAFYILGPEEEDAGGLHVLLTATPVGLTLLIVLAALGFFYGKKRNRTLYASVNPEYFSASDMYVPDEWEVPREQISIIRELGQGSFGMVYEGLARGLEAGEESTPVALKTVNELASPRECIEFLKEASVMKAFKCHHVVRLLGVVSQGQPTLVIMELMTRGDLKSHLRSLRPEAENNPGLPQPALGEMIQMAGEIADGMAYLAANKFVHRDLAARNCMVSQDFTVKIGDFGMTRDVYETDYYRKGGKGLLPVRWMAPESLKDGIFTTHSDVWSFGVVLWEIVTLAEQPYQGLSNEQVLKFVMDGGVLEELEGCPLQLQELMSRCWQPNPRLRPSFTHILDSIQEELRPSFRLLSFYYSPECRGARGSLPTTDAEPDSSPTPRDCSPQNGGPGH
In test [8] the target is T1, Tyrosine-protein kinase ITK/TSK (Homo sapiens) (UniProt Q08881).
T1 sequence (whole entry): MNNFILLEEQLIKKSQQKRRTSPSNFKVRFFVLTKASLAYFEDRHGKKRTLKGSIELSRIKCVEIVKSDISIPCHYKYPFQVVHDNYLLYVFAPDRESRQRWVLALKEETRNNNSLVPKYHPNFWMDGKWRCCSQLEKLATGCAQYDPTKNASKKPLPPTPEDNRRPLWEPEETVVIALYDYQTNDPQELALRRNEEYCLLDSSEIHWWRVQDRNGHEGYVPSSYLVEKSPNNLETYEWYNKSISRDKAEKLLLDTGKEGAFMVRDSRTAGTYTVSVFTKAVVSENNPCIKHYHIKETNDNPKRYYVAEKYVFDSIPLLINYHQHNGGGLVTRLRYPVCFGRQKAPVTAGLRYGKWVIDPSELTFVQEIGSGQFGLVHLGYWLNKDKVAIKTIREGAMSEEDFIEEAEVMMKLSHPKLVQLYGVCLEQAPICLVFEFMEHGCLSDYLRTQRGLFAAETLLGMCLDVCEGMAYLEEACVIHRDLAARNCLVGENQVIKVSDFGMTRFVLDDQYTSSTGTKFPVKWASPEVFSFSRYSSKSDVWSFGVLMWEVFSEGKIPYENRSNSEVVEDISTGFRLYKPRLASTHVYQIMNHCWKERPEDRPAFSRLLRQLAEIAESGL

In test [9] the target is Tyrosine-protein kinase JAK1 (Homo sapiens) (UniProt P23458).
Chain of Tyrosine-protein kinase JAK1 (Homo sapiens) (P23458 whole entry): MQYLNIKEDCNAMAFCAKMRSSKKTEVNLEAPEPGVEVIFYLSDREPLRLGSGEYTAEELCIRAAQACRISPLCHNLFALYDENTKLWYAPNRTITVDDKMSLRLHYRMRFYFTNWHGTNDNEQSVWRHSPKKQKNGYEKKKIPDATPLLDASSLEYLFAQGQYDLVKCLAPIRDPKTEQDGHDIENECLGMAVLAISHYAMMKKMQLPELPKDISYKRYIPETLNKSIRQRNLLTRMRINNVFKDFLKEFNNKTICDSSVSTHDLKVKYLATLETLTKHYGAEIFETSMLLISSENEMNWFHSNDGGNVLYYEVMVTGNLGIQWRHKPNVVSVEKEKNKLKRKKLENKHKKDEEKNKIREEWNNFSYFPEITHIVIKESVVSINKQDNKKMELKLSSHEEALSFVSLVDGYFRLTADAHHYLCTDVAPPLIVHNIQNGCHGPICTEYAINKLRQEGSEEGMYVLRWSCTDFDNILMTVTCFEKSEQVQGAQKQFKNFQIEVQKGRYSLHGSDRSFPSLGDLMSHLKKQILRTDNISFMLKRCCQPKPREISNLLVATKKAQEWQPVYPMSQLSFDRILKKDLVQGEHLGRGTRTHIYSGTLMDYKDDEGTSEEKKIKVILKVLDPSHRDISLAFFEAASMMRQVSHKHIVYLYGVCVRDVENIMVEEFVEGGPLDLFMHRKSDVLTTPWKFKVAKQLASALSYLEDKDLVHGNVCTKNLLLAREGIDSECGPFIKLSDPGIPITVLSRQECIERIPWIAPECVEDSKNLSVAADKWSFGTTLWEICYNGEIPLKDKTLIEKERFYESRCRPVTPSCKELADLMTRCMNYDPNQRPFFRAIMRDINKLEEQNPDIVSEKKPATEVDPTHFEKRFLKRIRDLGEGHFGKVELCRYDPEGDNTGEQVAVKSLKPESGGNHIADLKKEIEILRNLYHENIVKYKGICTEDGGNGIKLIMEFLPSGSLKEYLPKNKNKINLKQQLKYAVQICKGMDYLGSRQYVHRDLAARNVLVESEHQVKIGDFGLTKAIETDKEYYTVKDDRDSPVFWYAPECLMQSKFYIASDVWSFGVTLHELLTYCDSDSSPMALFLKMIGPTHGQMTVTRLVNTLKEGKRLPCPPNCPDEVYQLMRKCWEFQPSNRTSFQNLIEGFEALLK
In test [10] the target is Leukocyte tyrosine kinase receptor (Homo sapiens) (UniProt P29376).
Test [11] addresses Serine/threonine-protein kinase PAK 3 (Homo sapiens) (UniProt O75914).
The target in test [12] is Phosphatidylinositol 4,5-bisphosphate 3-kinase catalytic subunit gamma isoform (Homo sapiens) (UniProt P48736).
The target in test [13] is T2, Protein kinase C iota type (Homo sapiens) (UniProt P41743).
T2 sequence (whole entry): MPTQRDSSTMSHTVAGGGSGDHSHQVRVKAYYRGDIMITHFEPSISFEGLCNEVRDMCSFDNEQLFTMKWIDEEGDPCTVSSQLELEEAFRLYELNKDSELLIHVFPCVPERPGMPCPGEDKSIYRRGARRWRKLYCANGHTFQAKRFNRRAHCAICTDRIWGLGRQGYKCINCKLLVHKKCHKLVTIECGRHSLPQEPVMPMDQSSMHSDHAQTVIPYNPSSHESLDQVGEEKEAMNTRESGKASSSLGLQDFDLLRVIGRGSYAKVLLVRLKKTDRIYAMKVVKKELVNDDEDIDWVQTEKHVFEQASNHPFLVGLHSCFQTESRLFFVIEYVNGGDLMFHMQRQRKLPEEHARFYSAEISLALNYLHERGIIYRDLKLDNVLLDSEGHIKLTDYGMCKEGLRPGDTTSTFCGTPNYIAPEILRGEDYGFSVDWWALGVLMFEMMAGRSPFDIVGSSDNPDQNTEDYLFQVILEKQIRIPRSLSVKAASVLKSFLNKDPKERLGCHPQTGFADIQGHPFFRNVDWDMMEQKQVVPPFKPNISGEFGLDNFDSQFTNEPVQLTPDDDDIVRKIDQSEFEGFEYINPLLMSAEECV

In test [14] the target is NUAK family SNF1-like kinase 2 (Homo sapiens) (UniProt Q9H093).
The target of test [15] is T3, Serine/threonine-protein kinase TAO3 (Homo sapiens) (UniProt Q9H2K8).
T3 sequence (whole entry): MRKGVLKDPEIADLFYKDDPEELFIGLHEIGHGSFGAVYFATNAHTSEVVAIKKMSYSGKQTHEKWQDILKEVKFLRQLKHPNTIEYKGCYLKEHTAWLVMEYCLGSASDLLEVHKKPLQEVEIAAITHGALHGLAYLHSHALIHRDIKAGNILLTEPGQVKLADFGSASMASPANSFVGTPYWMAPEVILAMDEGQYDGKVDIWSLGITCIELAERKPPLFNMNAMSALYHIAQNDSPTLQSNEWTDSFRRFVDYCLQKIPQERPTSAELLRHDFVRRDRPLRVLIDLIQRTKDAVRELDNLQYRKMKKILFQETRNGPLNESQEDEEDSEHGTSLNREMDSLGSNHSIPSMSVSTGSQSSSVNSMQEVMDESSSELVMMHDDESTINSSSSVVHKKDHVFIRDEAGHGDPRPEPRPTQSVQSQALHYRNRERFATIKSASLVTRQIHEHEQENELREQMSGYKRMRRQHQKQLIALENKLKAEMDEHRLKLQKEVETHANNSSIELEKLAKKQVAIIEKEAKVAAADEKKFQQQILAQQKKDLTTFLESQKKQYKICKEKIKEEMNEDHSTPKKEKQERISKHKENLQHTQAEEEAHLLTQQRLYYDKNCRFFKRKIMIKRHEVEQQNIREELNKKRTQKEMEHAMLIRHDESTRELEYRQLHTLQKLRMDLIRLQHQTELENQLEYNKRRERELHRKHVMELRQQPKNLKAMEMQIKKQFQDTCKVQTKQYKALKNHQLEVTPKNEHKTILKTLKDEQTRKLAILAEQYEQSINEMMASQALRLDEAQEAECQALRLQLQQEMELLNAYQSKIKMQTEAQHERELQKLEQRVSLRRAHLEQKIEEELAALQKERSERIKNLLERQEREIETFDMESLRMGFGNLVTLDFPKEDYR

Test [16] concerns the target 5-hydroxytryptamine receptor 1E (Homo sapiens) (UniProt P28566). Particulars: Compound concentration 10.0 uM.
[17] abbreviates: Compound concentration 1000.0 nM.
Where [18] appears, read: Compound concentration 100.0 nM.

The structures appear in SMILES notation.

Chain of Calcium/calmodulin-dependent protein kinase type 1 (Homo sapiens) (Q14012 whole entry, looked up): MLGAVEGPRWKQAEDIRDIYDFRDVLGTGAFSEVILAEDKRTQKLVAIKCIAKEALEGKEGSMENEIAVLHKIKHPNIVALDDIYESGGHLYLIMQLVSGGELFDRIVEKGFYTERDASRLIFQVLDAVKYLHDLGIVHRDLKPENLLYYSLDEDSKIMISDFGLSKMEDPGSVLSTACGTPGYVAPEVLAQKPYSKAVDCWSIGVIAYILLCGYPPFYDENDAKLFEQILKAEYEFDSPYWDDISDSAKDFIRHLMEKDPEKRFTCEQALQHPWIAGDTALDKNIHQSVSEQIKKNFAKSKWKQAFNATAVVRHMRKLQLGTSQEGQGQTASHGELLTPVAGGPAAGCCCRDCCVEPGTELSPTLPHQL
Chain of 5-hydroxytryptamine receptor 1E (Homo sapiens) (P28566 whole entry): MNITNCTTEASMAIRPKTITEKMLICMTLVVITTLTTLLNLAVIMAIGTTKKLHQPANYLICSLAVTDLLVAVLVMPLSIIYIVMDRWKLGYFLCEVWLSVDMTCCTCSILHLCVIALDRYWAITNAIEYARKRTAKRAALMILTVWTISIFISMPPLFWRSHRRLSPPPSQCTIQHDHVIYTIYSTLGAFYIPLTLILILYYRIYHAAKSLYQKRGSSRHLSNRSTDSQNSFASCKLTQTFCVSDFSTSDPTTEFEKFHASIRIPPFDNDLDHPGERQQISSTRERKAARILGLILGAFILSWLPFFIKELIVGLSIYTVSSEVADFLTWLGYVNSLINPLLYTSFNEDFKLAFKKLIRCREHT
Chain of Casein kinase II subunit alpha' (Homo sapiens) (P19784 whole entry, looked up): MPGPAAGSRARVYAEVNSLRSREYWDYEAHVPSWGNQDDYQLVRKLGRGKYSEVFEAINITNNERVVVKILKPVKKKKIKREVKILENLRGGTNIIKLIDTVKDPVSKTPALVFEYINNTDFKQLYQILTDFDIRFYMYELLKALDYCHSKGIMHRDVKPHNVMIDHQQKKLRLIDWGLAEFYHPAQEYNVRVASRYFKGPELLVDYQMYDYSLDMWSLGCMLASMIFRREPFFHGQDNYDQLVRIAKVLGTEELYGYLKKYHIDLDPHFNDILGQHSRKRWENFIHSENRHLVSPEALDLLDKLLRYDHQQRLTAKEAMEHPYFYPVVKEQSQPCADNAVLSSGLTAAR

As usually defined, the residual activity is what remains of the control signal, in per cent. As usually defined, the inhibition is the drop in the measured response relative to a control, in per cent. Consider `C[C@@H]1CN(c2cc(-c3nn(C)c4ccc(OC5(C)CC5)cc34)ncn2)C[C@H](C)O1` [MLi-2-NC], for which the residual activity in test [1] (setting [17]) is 100%; in test [2] (setting [17]), 86%; in [3] (setting [17]) it was 100%; in test [4] (setting [17]), 100%; in test [5] (setting [17]) it was 100%; in [6] (setting [17]), 85%. For the same compound, the residual activity in test [7] (setting [17]) was 91%; in [8] (setting [17]), 96%; in [9] (setting [17]) it was 100%; in test [10] (setting [17]) it was 100%; in test [11] (setting [17]), 100%; in [12] (setting [17]) it was 100%. In addition, the values for the residual activity in [13] (setting [17]), in [14] (setting [17]) and in [15] (setting [17]) were 100%, 68% and 35%, respectively. For the same compound, the inhibition in test [16] is -0.18%.
For the compound `C[C@@H]1CN(c2cc(-c3n[nH]c4ccc(OC5(C)CC5)cc34)ncn2)C[C@H](C)O1` [MLi-2], the residual activity in test [1] (setting [18]) was 100%; in [2] (setting [18]), 100%; in [3] (setting [18]), 96%; in test [4] (setting [18]), 93%; in test [5] (setting [18]), 91%; in test [6] (setting [18]) it was 100%. For the same compound, the residual activity in [7] (setting [18]) was 57%; in [8] (setting [18]), 87%; in test [9] (setting [18]), 88%; in [10] (setting [18]), 84%; in test [11] (setting [18]), 83%; in test [12] (setting [18]), 72%. The results for the residual activity in test [13] (setting [18]), in test [14] (setting [18]) and in test [15] (setting [18]) were 80%, 79% and 69%, respectively. Further, the inhibition in [16] is -7.52%.
